EP2085082A1, “Treatment of cognitive decline” (Nutromnia S.R.L., priority 2008, dated 2009)
Where “and” joins values, the source holds several entries; their conditions need not be identical. Equal entries are not always repeated.

Key:
Type in all cases: in vivo
Goto-Kakizaki rats [1] = assay: Morris water maze, place discrimination task, diabetes-related cognitive decline; settings: for Travelled distance / time of permanence in the correct quadrant / time to find the platform: Goto-Kakizaki rats
Method: (§1) In order to evaluate the impact of a diet enriched with dicarboxylic acids on diabetes-related cognitive decline, 10 Wistar rats and 20 Goto-Kakizaki rats of both sexes (half male and half female), aged 4 months were used.
(§2) Rats of the same sex were housed (2-3 per cage) in a colony room with a 12:12 light- dark cycle and ad libitum access to food and water. All behavioral testing occurred during the light phase of the light- dark cycle. Body weight was recorded twice a week.
(§3) Ten Goto-Kakizaki rats (treated group) were selected at random from the initial group of 20 animals and were fed with pellets enriched with 5% dodecanedioic acid. The remaining ten Goto-Kakizaki rats formed the control group and received standard Purina chow. A group of ten Wistar rats was also fed with standard Purina chow, as second control group.
(§4) The dietary supplementation was carried out for 1 month and in the last week of treatment the different groups underwent some tasks in the Morris water maze in order to test their cognitive abilities.
(§5) A large metal pool (180 cm in diameter) filled with opaque water and kept at a constant temperature 24 ± 1°C and a 10 cm platform were used in place discrimination and visual discrimination tasks. A straight plastic alley (10 × 70 cm) was placed in the large pool and used during the straight swim test to estimate swimming ability. A video-camera was used to record the different phases of the experiments.
(§6) Each rat received 1 day of training with three sessions of five platform trials and one probe trial each and a random order of start positions. During the platform trials, the platform was submerged but accessible to the rat, whereas during the probe trials, the platform was collapsed at the bottom of the tank for variable intervals (from 10 to 40 sec) to test the subject's preference for the platform location. The collapsed platform was then returned to its raised position at the end of the probe trial to maintain the same response-reinforcement contingency as in the platform trials. The percentage of time spent in the correct quadrant, the choice accuracy [i.e. the time in seconds to find the platform], and the travelled distance or distance swum to find and climb on the platform [in centimeters] were measured. A a shorter time to find the platform indicate better performance. Higher scores for a percentage of time spent in the correct quadrant reflected better performance. Location of the platform and a set of spatial cues around the tank were changed between the testing periods.
(§7) Data are reported as mean ± SD. Comparison between groups was made by repeated-measures ANOVA. Body weight was used as a covariance to adjust the significance of between-group differences in speed of swimming. P<0.05 was considered as significant.

Goto-Kakizaki rats [2] = assay: as above; settings: average value (mean ± SD, 10 rats), 5% dodecanedioic acid pellets for 1 month, listed as dodecanoic acid
Goto-Kakizaki rats [3] = assay: Morris water maze, repeated acquisition task, diabetes-related cognitive decline; settings: 5% dodecanedioic acid pellets for 1 month
Method: as §1, §2, §3, §4, §5
(§8) The training started on the day after the place discrimination task and consisted of 1 day of training with two sessions of 9 trials each. During the first session, the set of extra maze cues, as well as the location of platform, was different from that on the previous place discrimination task. During the second session, the platform was moved to the new position, with the set of external cues remaining the same. Each session consisted of eight platform trials and one probe trial. The measures of platform and probe trials were the same as in the place discrimination task.
Data are reported as mean ± SD. Comparison between groups was made by repeated-measures ANOVA. […]

Wistar rats [4] = assay: Morris water maze, place discrimination task, age-related cognitive decline; settings: for Swimming time (choice accuracy, time to find the platform): pellets enriched with 5% dodecanedioic acid for 3 months
Method: (§9) In order to evaluate the impact of a diet enriched with dicarboxylic acids on age-related cognitive decline, 20 Wistar rats of both sexes (half male and half female), 4 months old and 23 months old were used.
(§10) Rats of the same sex were housed (2-3 per cage) in a colony room with a 12:12 light- dark cycle and ad libitum access to food and water. All behavioural testing occurred during the light phase of the light- dark cycle. Body weight was recorded twice a week.
(§11) The rats were divided in two groups of 10. The rats of a group (treated group) were fed with pellets enriched with 5% dodecanedioic acid, the rats of the other group being the control group. The dietary supplementation was carried out for 3 months and in the last week of treatment both groups underwent some tasks in the Morris water maze in order to test their cognitive abilities.
as §5, §6, §7

Wistar rats [5] = assay: Morris water maze, repeated acquisition task, age-related cognitive decline; settings: old Wistar rats, 5% dodecanedioic acid pellets for 3 months
Method: as §9, §10, §11, §5, §8, §7

[6] = administered orally, rats, overall conclusion
[7] = average value (mean ± SD, 10 rats), 5% dodecanedioic acid pellets for 1 month
[8] = individual data per rat, 5% dodecanedioic acid pellets for 1 month
[9] = average value (mean ± SD, 10 rats)
[10] = individual data per rat, old Wistar rats, 5% dodecanedioic acid pellets for 3 months

O=C(O)CCCCCCCCCCC(=O)O [C12, dodecanedioic acid]
diabetes-related decline in various cognitive functions (Goto-Kakizaki rats [1]; [6]): ameliorates
Travelled distance (Goto-Kakizaki rats [1]; [7]): 423,60 cm
time of permanence in the correct quadrant (Goto-Kakizaki rats [1]; [7]): 44,00 sec
time to find the platform (Goto-Kakizaki rats [1]; [7]): 23,24 sec
time to find the platform (Goto-Kakizaki rats [1]; average value (mean ± SD, 10 rats), 5% dodecanedioic acid pellets for 1 month, listed as dodecanedioic acid): 23.24 ± 2.81 s
Travelled distance (Goto-Kakizaki rats [1]; [8]): 306 cm and 418 cm and 511 cm (2×) and 368 cm and 354 cm and 477 cm and 541 cm and 326 cm and 424 cm
time of permanence in the correct quadrant (Goto-Kakizaki rats [1]; [8]): 41 sec (2×) and 49 sec and 50 sec and 46 sec and 39 sec and 47 sec and 45 sec and 44 sec and 38 sec
time to find the platform (Goto-Kakizaki rats [1]; individual data per rat, pellets enriched with 5% dodecanedioic acid for 1 month): 18,4 sec and 22,6 sec and 23,4 sec and 25,9 sec and 27 sec and 24 sec and 22,1 sec and 23,5 sec and 26,2 sec and 19,3 sec
Travelled distance (Goto-Kakizaki rats [2]): 423.6±83.82 cm
REPEATED ACQUISITION TASK TRAVELLED DISTANCE (Goto-Kakizaki rats [3]; [9]): 374,10 cm
REPEATED ACQUISITION TASK TRAVELLED DISTANCE (Goto-Kakizaki rats [3]; average value (mean ± SD, 10 rats), listed as dodecanoic acid): 374.1±78.23 cm
REPEATED ACQUISITION TASK TRAVELLED DISTANCE (Goto-Kakizaki rats [3]; individual data per rat): 403 cm and 300 cm (3×) and 370 cm and 359 cm and 291 cm and 444 cm and 498 cm and 476 cm
age-related decline in various cognitive functions (Wistar rats [4]; [6]): ameliorates
time in the correct quadrant (Wistar rats [4]; average value (10 rats), old Wistar rats, 5% dodecanedioic acid pellets for 3 months): 41,70%
Travelled distance (Wistar rats [4]; average value (mean ± SD, 10 rats), old Wistar rats, 5% dodecanedioic acid pellets for 3 months): 409,50 cm
Travelled distance (Wistar rats [4]; average value (mean ± SD, 10 rats), old Wistar rats, 5% dodecanedioic acid pellets for 3 months, listed as dodecanoic acid): 409.5± 98.6 cm
Swimming time (choice accuracy, time to find the platform) (Wistar rats [4]; average value (mean ± SD, 10 rats), old Wistar rats): 19,59 sec
Swimming time (choice accuracy, time to find the platform) (Wistar rats [4]; average value (mean ± SD, 10 rats), old Wistar rats, listed as dodecanedioic acid): 19.6 ± 1.6 s
Swimming time (Wistar rats [4]; individual data per rat, old Wistar rats fed pellets enriched with 5% dodecanedioic acid for 3 months): 21,8 sec and 18 sec (3×) and 22 sec and 19 sec and 21 sec and 20 sec and 18,5 sec and 19,6 sec
Travelled distance (Wistar rats [4]; [10]): 370 cm and 400 cm and 300 cm (2×) and 580 cm and 450 cm and 520 cm and 350 cm and 325 cm and 500 cm
time in the correct quadrant (Wistar rats [4]; [10]): 35% (2×) and 50% and 45% and 40% and 42% and 44% and 48% and 37% and 41%
time of permanence in the correct quadrant (Wistar rats [4]; mean ± SD as given in text, old Wistar rats, 5% dodecanedioic acid pellets for 3 months): 41.7±5.2 % sec
Travelled distance in repeated trials (Wistar rats [5]; [9]): 327,00 cm
Travelled distance in repeated trials (Wistar rats [5]; average value (mean ± SD, 10 rats), listed as dodecanedioic acid): 327.0±80.4 cm
Travelled distance in repeated trials (Wistar rats [5]; individual data per rat): 400 cm and 300 cm (3×) and 200 cm and 350 cm and 410 cm and 260 cm and 470 cm and 280 cm
